From patent US8232063B2, “H+-gated ion channel” (University of Utah Research Foundation, priority 2004, dated 2012)
Entries after “also recorded” stand apart in the source; their conditions may differ. Read-outs that look alike come from different tables or passages of the source. One block for each molecule: values may come before it.

What was measured:
PBO-5/PBO-8 receptors = experiment: Two-electrode voltage clamp of Xenopus oocytes coinjected with PBO-5 and PBO-8 cRNA; type: cell-based, C. elegans; settings: for run-down (use-dependent block) of H+-evoked current by the buffer of the extracellular solution: repeated pH 6.8 test pulses
Description: (§1) Capped RNA was prepared using the T7 mMessage mMachine kit (Ambion). Xenopus oocytes were collected and coinjected with 25 ng each of PBO-5 and PBO-8 cRNA and two-electrode voltage clamp recordings were performed 3-5 days post-injection. The standard bath solution for dose-response and control I-V experiments was Ringer's (in mM): 115 NaCl, 1.8 […], 10 Bis-Tris Propane (pH 7.4 Acetic acid). For dose-response experiments, each oocyte was subjected to a 5 second application of test pH (7.0 - 5.0) with 2 minutes of pH 7.4 wash between test applications.
Ion selectivity experiments: All points are responses to test pulse applications of pH 6.8 for 5 seconds. The reversal potential of PBO-5/PBO-8 expressing oocytes were first determined in standard Ringer's (in mM): 115 NaCl, 1.0 CaCl2, 10 Bis-Tris Propane (pH 7.4, acetic acid). For chloride permeability a simplified solution was used, chloride-free (in mM): 115 Na^+ gluconate, 1.0 CaCl2, 10 Bis-Tris Propane (pH 7.4 acetic acid). For Na^+ permeability a simplified solution was used, Na^+ free (in mM): 115 mM N-methyl D-glucamine (NMDG), 1.8 CaCl2, 10 Bis-Tris Propane (pH 7.4 acetic acid)). All solutions were brought to pH by addition of NaOH or acetic acid. To determine K^+ permeability, I-V experiments were performed in K^+ Ringer's (in mM): 115 K^+-gluconate, 1.0 CaCl2, 10 Bis-Tris Propane (pH=7.4 acetic acid). To determine Ca^2+ permeability extracellular Na^+ was lowered to 90 mM and extracellular CaCl2 was increased to 3 mM and 10 mM, compare to 1 mM Ca^2+ control. To better resolve calcium permeability, the Na^+ free solution was used except CaCl2 was increased ten-fold, 18 mM CaCl2 (in mM): 115 NMDG, 18 CaCl2, 10 Bis-Tris Propane, (pH 7.4 acetic acid). Osmolarity was measured for each solution and was maintained at 240 mOsm by the addition of sucrose. All recordings were done at room temperature. We used 3M KCl filled electrodes with a resistance between 1-3 MΩ. We used a 3M KCl agar bridge to minimize liquid junction potentials, and all liquid junctions potentials arising at the tip of the recording electrode were corrected online.
Data analysis. Data acquisition and analysis were performed using Axograph (Axon Instruments) software, and curve fitting and statistical analysis were performed with Prism (Graphpad). Dose-response curves from individual oocytes were normalized to the maximum and minimum values and averaged for at least eleven oocytes. Normalized data were fit to the four-parameter equation derived from the Hill equation: Y=Min+(Max−Min)/(1+10(Log EC50-X)(nH)), where Max is the maximal response, Min is the response at the lowest drug concentration, X is the logarithm of agonist concentration, EC50 is the half-maximal response, and nH is the Hill coefficient. Error bars represent the standard error of the mean.

[1] = system: posterior body contraction; experiment: Posterior body contraction of the defecation cycle in vivo; set-up: species or system C. elegans; settings: 100 mM, pH 7.2, injected into pseudocoelomic space
Description: To determine if H^+ ions are required to initiate a posterior body contraction endogenous acidification of the pseudocoelomic space is blocked. For example, 100 mM Bis-Tris Propane buffered saline (pH 7.2) is injected into the pseudocoelomic space of an animal and defecation cycles postinjection observed. […] The injected animals should phenocopy both pbo-4 and pbo-5 mutants.
Alternatively, a caged buffer is used to assay the requirement for H^+ activation of PBO-5/PBO-8 receptors in vivo. For example, animals are injected with a caged buffer (Molecular Probes) and the buffer uncaged, by flash photolysis, as a posterior body contraction is about to occur. An advantage of the latter scheme is that an animal can be injected first and then observed for a number of cycles to determine if it retains normal defecation cycles, and in particular posterior body contractions. After quantification of a number of defecation cycles, the buffer is uncaged and the animal observed for a specific loss of posterior body contraction. Li addition, the inverse experiment, where caged protons are injected, may be conducted to elicit an out of phase posterior body contraction by uncaging the protons during the intercycle.
The posterior body contraction occurs via a calcium-regulated mechanism. […]

PBO-5 homomers = biological target: T1, PBO-5 homomers (Caenorhabditis elegans, UniProt G5ECT0); experiment: Two-electrode voltage clamp of Xenopus oocytes injected with PBO-5 cRNA (homomers); type: cell-based, C. elegans
T1 construct: cloned into the pCR2.1 TA cloning vector (Invitrogen) and a full length clone pPD68 was generated; expressed in transfected cells; host or cells: Xenopus oocytes injected with PBO-5 cRNA (pSGEM-based plasmid pAB20)
T1 sequence (G5ECT0 22-504 isoform G5ECT0-2 limits assumed): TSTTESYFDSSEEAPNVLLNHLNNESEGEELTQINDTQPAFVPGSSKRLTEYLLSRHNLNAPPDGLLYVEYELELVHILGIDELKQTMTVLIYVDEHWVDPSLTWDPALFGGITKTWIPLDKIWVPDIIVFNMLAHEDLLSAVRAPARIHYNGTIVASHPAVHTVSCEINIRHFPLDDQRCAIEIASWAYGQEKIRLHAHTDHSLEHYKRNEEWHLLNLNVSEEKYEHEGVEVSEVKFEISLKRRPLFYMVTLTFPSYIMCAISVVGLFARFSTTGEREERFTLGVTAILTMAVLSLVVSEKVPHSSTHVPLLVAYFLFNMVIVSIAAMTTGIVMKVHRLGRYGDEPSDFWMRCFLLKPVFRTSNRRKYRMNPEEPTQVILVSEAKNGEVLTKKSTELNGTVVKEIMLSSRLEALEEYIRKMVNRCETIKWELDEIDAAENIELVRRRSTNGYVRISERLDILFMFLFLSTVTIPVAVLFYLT
Description: as §1
To determine if PBO-5 can form a homo-oligomeric receptor, we injected PBO-5 cRNA in Xenopus oocytes. […] Two-electrode voltage clamp recordings were used to assay receptor functionality.
To determine if PBO-5 and PBO-8 can co-assemble to form a functional receptor, we injected PBO-5 and PBO-8 cRNA into Xenopus oocytes. […] To determine the possible signal that mediates posterior body contraction we examined the pbo-4 gene.

PBO-8 homomers = experiment: Two-electrode voltage clamp of Xenopus oocytes injected with PBO-8 cRNA (homomers); type: cell-based, C. elegans
[2] = Xenopus oocytes, two-electrode voltage clamp

- run-down (use-dependent block) of H+-evoked current by the buffer of the extracellular solution (PBO-5/PBO-8 receptors): did not cause current run-down
Molecule: OCC(CO)(CO)NCCCNC(CO)(CO)CO [Bis-Tris Propane, 1,3-Bis[tris(hydroxymethyl)methylamino) propane]
- posterior body contraction after injection of buffered saline into the pseudocoelomic space [1]: fail to initiate a posterior body contraction

- maximal activation of PBO-5/PBO-8 on increasing extracellular Ca2+ (PBO-5/PBO-8 receptors; pH 6.0): no effect on maximal activation
- H-evoked responses compared to 1 mM Ca2+ control (PBO-5/PBO-8 receptors; pH 7.0 and 6.8, Ca2+ increased to 3 mM and 10 mM): significantly reduced
Molecule: [Ca+2] [Ca^2+]
- effect of extracellular Ca2+ on gating of PBO-5/PBO-8 (mode of action) (PBO-5/PBO-8 receptors; pH 6.8, 10.0 mM vs 1.0 mM Ca2+): inhibit gating; also recorded: competitive antagonist

Molecule: NCCCC(=O)O [GABA, γ-aminobutyric acid]
- activation of PBO-5 homomers (functional response) (PBO-5 homomers): failed to elicit a functional response; also recorded: lacked the ability to activate
- co-activation: pH 6.8 plus ligand compared with pH 6.8 only application (PBO-5/PBO-8 receptors; 1 mM ligand, pH 6.8): not significantly different
- activation of PBO-5/PBO-8 heteromers (PBO-5/PBO-8 receptors; [2]): lacked the ability to activate
- activation of PBO-8 homomers (PBO-8 homomers): lacked the ability to activate

Molecule: O=S(=O)(O)CCN1CCN(CCO)CC1 [HEPES, N-2-hydroxyethylpiperazine-N′-2-ethanesulfonic acid]
- run-down (use-dependent block) of H+-evoked current by the buffer of the extracellular solution (PBO-5/PBO-8 receptors): very rapid rundown; also recorded: inhibitory to the receptor

- pH50 (PBO-5/PBO-8 receptors; 1 mM Ca2+ control conditions): 6.88
- pH50 (PBO-5/PBO-8 receptors; 10 mM Ca2+ test conditions): 6.59
- activation of PBO-5/PBO-8 heteromers (PBO-5/PBO-8 receptors; [2]): sufficient to activate
- pH of 10% maximal activation (PBO-5/PBO-8 receptors; perfusion buffer pH 7.4): ~7.0
- pH50 (half-maximal activation) (PBO-5/PBO-8 receptors; voltage-clamped at -60 mV, test pH 5 seconds, standard Ringer's, n=18): 6.83±0.01
Molecule: [1H+] [H^+]

- run-down (use-dependent block) of H+-evoked current by the buffer of the extracellular solution (PBO-5/PBO-8 receptors): did not cause current run-down
Molecule: O=S(=O)(O)CCN1CCOCC1 [MES, 2-(N-Morpholino)-ethanesulfonic acid]

- block of PBO-5/8 gating (PBO-5/PBO-8 receptors; 1 mm amiloride): did not result current block
Molecule: N=C(N)NC(=O)c1nc(Cl)c(N)nc1N [amiloride]

Molecule: N[C@@H](CCC(=O)O)C(=O)O [glutamate]
- activation of PBO-5 homomers (functional response) (PBO-5 homomers): lacked the ability to activate
- activation of PBO-5/PBO-8 heteromers (PBO-5/PBO-8 receptors; [2]): lacked the ability to activate
- activation of PBO-8 homomers (PBO-8 homomers): lacked the ability to activate

Molecule: NCC(=O)O [glycine]
- activation of PBO-5 homomers (functional response) (PBO-5 homomers): failed to elicit a functional response; also recorded: lacked the ability to activate
- activation of PBO-5/PBO-8 heteromers (PBO-5/PBO-8 receptors): lacked the ability to activate
- activation of PBO-8 homomers (PBO-8 homomers): lacked the ability to activate

Molecule: NCCc1c[nH]c2ccc(O)cc12 [serotonin]
- activation of PBO-5 homomers (functional response) (PBO-5 homomers): failed to elicit a functional response
- activation of PBO-5 homomers (functional response) (PBO-5 homomers; listed as 5-HT): lacked the ability to activate
- activation of PBO-5/PBO-8 heteromers (PBO-5/PBO-8 receptors; [2]): lacked the ability to activate
- activation of PBO-8 homomers (PBO-8 homomers): lacked the ability to activate

Molecule: d-tubocurare
- pharmacological block of PBO-5/8 responses (PBO-5/PBO-8 receptors; cholinergic antagonist applied to PBO-5/8 expressing cells): all attempts to pharmacologically block PBO-5/8 responses failed
